Data on one molecule can be found in patent US20240116985A1, “STAPLED PEPTIDES AND METHODS THEREOF” (priority 2020, published 2024).

Format in all cases: cell-based
Data set [1] deals with TCF/LEF luciferase Reporter in DLD1 cells. The data set is described as follows: TCF reporter assay (DLD1 TCF/LEF luciferase reporter, Bright-Glo). Particulars: read-out: DLD1 4% Abs IC50; DLD1 4%. In outline: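 DLD1 cells stably carrying a TCF/LEF luciferase reporter were plated at 5000 cells/well in RPMI + 4% FBS and treated overnight with a 1:2 compound dilution series. Bright-Glo luminescence read on day 3; viability by CellTiter-Glo. Absolute IC50 determined.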

A short description of data set [2]: in vitro. The note with it: human, HEK293 cells, CTG (CellTiter Glo) Relative to Media. How it is done: (§1) On Day 3, fluorescence was read with Nano-BRET substrates. Remove plates from incubator to allow to reach to RT (30 min). Also equilibrate CTG reagent to Rm Temp. Dilute Nano-BRET substrate 1:100 in Assay media. Add 25 uL of diluted substrate to each well and shake for 30 seconds. Read on ClarioSTAR or GloMAX right away (within 10 min). Donor emission @ 460 nm. Acceptor emission @ 618 nm. Use the same plate to measure cell viability (Cell Titer-Glo-2.0 (CTG) Viability test). After reading BRET signal, add CTG reagent to each well at 1:2 ratio and shake on orbital shaker for 2 min. Incubate at Rm Temp for 10-30 min. Read luminescence on ClarioSTAR or GloMAX. Analysis was performed using Prism. Non-linear regression. Log (inhibitor) vs response—variable slope (four parameters). For CTG data linear values (not logarithmic).
On the technique in general: ATP-based viability assays read luminescence as a measure of living cells.

Data set [3] relates to HEK293 cells. Briefly: in vitro. Particulars: human. As for the experimental part:
as §1

As to `CC(=O)N1CCC[C@]12CC=CCCCC1(CCCC=CCCCOC(=O)N3CC[C@@](C(=O)N[C@@H](Cc4ccsc4)C(=O)N[C@@H](Cc4csc5ccccc45)C(=O)N[C@@H](CCC(N)=O)C(=O)N[C@H](C)C(N)=O)(C3)NC(=O)[C@H](CC(N)=O)NC(=O)[C@H](Cc3ccccc3)NC(=O)[C@H](C)NC(=O)[C@H](C)NC(=O)[C@H](CC(=O)O)NC(=O)[C@H](CC(=O)O)NC1=O)NC(=O)[C@H](CC(C)(C)C)NC(=O)[C@H](CC(=O)O)NC2=O` (stereo partly drawn) [I-822, Ac-PL3-Asp-Npg-B5-Asp-Asp-Ala-Ala-Phe-Asn-PyrS2-3Thi-BztA-Gln-dAla-NH2], the concentration for half-maximal inhibition (IC50) in data set [1] was determined as 7.2 µM. Further, in data set [2], the viability at 0.625 µM was found to be 100%, the viability at 1.25 µM stood at 94%, the viability at 2.5 µM stood at 99% and the viability at 5 µM was determined as 94%. In data set [2], this molecule came in with a viability at 10 µM of 90% and a viability at 20 µM of 82%. The “CTG (CellTiter Glo) Relative to Media” value in data set [3] (1.25 µM) was determined as 98. The “CTG (CellTiter Glo) Relative to Media” value in data set [3] (2.5 µM) stood at 98. The “CTG (CellTiter Glo) Relative to Media” value in data set [3] (5 µM) is 95. In addition, in data set [3] (10 µM), the “CTG (CellTiter Glo) Relative to Media” value was 92.

Usually IC50 stands for the midpoint of a concentration-inhibition curve. A word on the viability: it is a per cent measure of how many cells are alive, often set against a control.
